Assay results published in patent publication US20110160266A1, “Novel Anti-Arrhythmia Agent” (THE UAB RESEARCH FOUNDATION, priority 2008, published 2011).
Structures can show the parent of a compound that is named as a salt.

Tests used:
[1] = tested on: right ventricular muscle strips and right ventricular papillary muscles; experiment: Ventricular muscle model of SMA; set-up: species or system rats; settings: added to the superfusate in appropriate amounts; paced at 0.5 Hz
Description: To further establish this model as a general test for arrhythmic and anti-arrhythmic agents, right ventricular muscle strips and right ventricular papillary muscles were isolated from anesthetized rats using methods known to persons skilled in the art. These muscles were then superfused as described above and paced at 0.5 Hz.

rat left atria = experiment: Suppression of STA induced by 2-APB plus BayK 8644 or isoproterenol in left atria
Protocol: 3 Hz-paced left atria (n=9 per group) were superfused (i) in Krebs-Henseleit alone or (ii) they were treated with 20 μM 2-APB for 10 min, (iii) with 300 nM BayK 8644 for 10 min and with 20 μM 2-APB for 10 min, or (iv) they were treated with 300 nM BayK 8644 and 20 μM 2-APB for 10 min, then with 70 μM zatebradine (3-[3-[[2-(3,4-Dimethoxyphenyl)ethyl]methyl amino]propyl]-1,3,4,5-tetrahydro-7,8,-dimethoxy-2H-3-benzazepin-2-one hydrochloride) for 10 min (Baruscotti et al., 2005). Pacing was interrupted at these times and rates of SMA were recorded.
(§1) Left atria (n=9) were paced at 0.1 Hz, treated with 300 nM BayK 8644 for 5 min, then with 20 μM 2-APB for 10 min, and the pacing stimulus was stopped. These preparations then were incubated with six increasing concentrations of zatebradine (10-100 μM) for 3-5 min at each concentration, and rates of SMA were recorded. Untreated right atria (n=9) also were titrated with zatebradine and its effect on contraction frequency was recorded.
To test whether zatebradine affects left atrial force of contraction, two groups of left atria (n=9 per group) were paced at 3 Hz and treated with 300 nM BayK 8644. Five minutes later one group was incubated with six increasing concentrations of zatebradine (10-100 μM) for 3-5 min at each concentration, and forces of contraction were recorded. A second group was treated with BayK 8644 but not zatebradine, and forces of contraction were recorded at corresponding times.
(§2) To test whether zatebradine affects the SMA occurring in the presence of 2-APB and isoproterenol, left atria (n=7) were paced at 0.1 Hz, treated with 30 nM isoproterenol for 5 min, then with 20 μM 2-APB for 10 min, and the pacing stimulus was stopped. Rates of SMA were recorded, these left atria were exposed to 70 μM zatebradine for 10 min, and rates of SMA were recorded again. A group of right atria (n=7) also were exposed to 30 nM isoproterenol for 5 min and then to 70 μM zatebradine for 10 min. Right atrial contraction frequency was recorded at these two times.
(§3) To test whether ZD-7288, an If inhibitor structurally unrelated to zatebradine (Baruscotti et al., 2005; Sanders et al., 2006) affects the SMA occurring in the presence of 2-APB and BayK 8644, rat left atria (n=7) were treated with 300 nM BayK 8644 for 5 min, then with 20 μM 2-APB for 10 min, and the rates of ectopic activity were recorded. These atria then were incubated with six increasing concentrations of ZD-7288 (10-100 μM) for 3-5 min at each concentration, and the rates of SMA were recorded. Right atria (n=7) were titrated similarly with ZD-7288 (0-100 μM) and the change in their contraction frequency was recorded.
In these experiments, a 2-APB model system was used to simulate tachycardic abnormal automaticity. Specifically, superfused left atria were treated sequentially with 300 nM BayK 8644, an activator of voltage-dependent calcium entry, which loads myocytes with calcium, and then with 2-APB (20 μM) to activate the putative myocyte system for abnormal automaticity. […] SKF-96365 (10 μM) was added to the superfusate. SKF-96365 reversed STA in these left atria within 2-3 min and the muscle became quiescent in the absence of pacing (FIG. 34, “Rest”).
Additional experiments determined the concentration-dependence of SKF-96365 inhibition of STA. These experiments were performed as described above except that various concentrations of SKF-96365 were added to the left atrial superfusate (about 10-70 μM). Exposing left atria to various concentrations of SKF-96365 reversed STA (FIG. 35).

rat right atria = experiment: Right atrial spontaneous contraction frequency
Protocol: as §1, §2, §3

`c1ccc(B(OB(c2ccccc2)c2ccccc2)c2ccccc2)cc1` [DPBA, diphenyl boronic anhydride] was tested, and the “induction of ventricular SMA” value [1] was “ventricular SMA was observed”.

With `COc1ccc(CCN(C)CCCN2CCc3cc(OC)c(OC)cc3CC2=O)cc1OC` [zatebradine, 3-[3-[[2-(3,4-Dimethoxyphenyl)ethyl]methylamino]propyl]-1,3,4,5-tetrahydro-7,8,-dimethoxy-2H-3-benzazepin-2-one hydrochloride] the “effect on STA initiated by BayK 8644 and 2-APB” value (rat left atria; 300 nM BayK 8644 + 20 μM 2-APB, zatebradine 70 μM, ZD-7288 10-100 μM, SKF-96365 about 10-70 μM) was “significantly decreases”, the “effect on left atrial force of contraction” value (rat left atria; 300 nM BayK 8644, 10-100 μM zatebradine) was “does not affect left atrial force of contraction” and the “left atrial force of contraction, % of initial force” value (rat left atria; 3 Hz-paced, 300 nM BayK 8644, titrated with 10-100 μM zatebradine) was 95±3.8 % of initial force. For the same molecule, the IC50 (rat left atria; Rattus norvegicus, intact left atria exposed to BayK 8644 and 2-APB, linear decrease) was 58 ± 5 µM, the “rate of appendage STA with zatebradine” value (rat left atria; isoproterenol + 2-APB + 70 μM zatebradine for 10 min) was 110±24.5 contractions/min and the “right atrial contraction frequency” value (rat right atria; 30 nM isoproterenol, then 70 μM zatebradine for 10 min) was 212±9.7 contractions/min. The IC50 (rat right atria; Rattus norvegicus, untreated right atria titrated with zatebradine, read-out: IC50 for decrease of right atrial contraction frequency) was 12 ± 1.1 µM and the “maximum decrease of right atrial contraction frequency” value (rat right atria; zatebradine titration) was ~50%.
